Experimental data taken from patent US12383545B1, “Treatment of migraine” (priority 2018, dated 2025).

Columns and labels:
[1] = tested on: participants with episodic migraine; experiment: Study B: AIM-D PDA and PI domain scores over 52 weeks; format: in vivo, human; conditions: atogepant 60 mg, mITT Population
Source text: The Activity in Migraine Diary (AIM-D) evaluates the impact of migraine on the performance of daily activities and physical impairment using an electronic daily diary. In particular, the AIM-D is comprised of two domains that evaluate Performance of Daily Activities (PDA) and Physical Impairment (PI). Assessed items for the AIM-D PDA domain include household chores, errands, leisure activities at home, social or leisure activities outside the home, strenuous physical activities, concentration, and thinking clearly. Assessed items for the AIM-D PI Domain include walking, moving one's body, bending forward, and moving one's head. Response options for each item range from “not difficult at all” to “I could not do it at all” on a 6-point rating scale. The AIM-D domain scores are scaled from 0-100, with higher scores indicating greater impact of migraine, and reductions from baseline in scores indicate improvement. See Cala et al., The Activity Impairment in Migraine-Diary (AIM-D): A Novel Migraine-Specific Patient-Reported Outcome Measure to Assess Functioning Based on Activity Impairment in Episodic and Chronic Migraine Patients, MTIS2018-005 (Sep. 5, 2018).
The negative change scores with confidence intervals that exclude 0 indicate a significant reduction in impairment due to migraine in PDA and PI.
Change scores with confidence intervals excluding zero were present at each time point assessed, indicating significant reduction in impairment due to migraine during the 52-week trial.

[2] = tested on: participants with episodic migraine; experiment: Study A: Migraine-Specific Quality of Life Questionnaire (MSQ v2.1) domain scores; format: in vivo, human; design: key to MSQ v2.1 Role Function Restrictive domain score, Week 12, mean (SD) / MSQ v2.1 Role Function Restrictive domain score, change from baseline, mean (SD) / MSQ v2.1 Role Function Restrictive domain score, MMRM LS mean change (SE): 0–100 scale, higher = better quality of life; conditions: for MSQ v2.1 Role Function Restrictive domain score, Week 12, mean (SD): mITT; for MSQ v2.1 Role Function Restrictive domain score, MMRM LS mean change (SE) / MSQ v2.1 Role Function Restrictive domain score, change from baseline, mean (SD): week 12, mITT; for MSQ v2.1 EF domain, improvement vs placebo / MSQ v2.1 RFP domain, improvement vs placebo: week 12
Source text: The Migraine-Specific Quality of Life Questionnaire Version 2.1 is one of the most frequently utilized disease-specific tools assessing the impact of migraine on HRQL. The MSQ is a validated tool that assess the impact of migraine on function (i.e., daily social and work-related activities) over the past 4 weeks across three dimensions: Role Function-Restrictive (RR, or “RFR”, relating to how migraines limit the patient's daily social and work related activities), Role Function-Preventive (RP, e.g., how migraines prevent the patient's daily social and work related activities), and Emotional Function (EF, e.g., the emotions associated with a patient's migraines). Patients respond to items using a 6-point scale: “none of the time,” “a little bit of the time,” “some of the time”, “a good bit of the time,” “most of the time” and “all of the time,” which are assigned scores of 1 to 6, respectively. Raw dimension scores are computed as a sum of item responses and rescaled from a 0 to 100 scale such that higher scores indicate better quality of life. See Bagley et al., Validating Migraine-Specific Quality of Life Questionnaire v2.1 in Episodic and Chronic Migraine, Headache, 2012 March; 52 (3): 409-21.
The primary efficacy endpoint was change from baseline in mean monthly migraine days across the 12-week treatment period. Secondary efficacy endpoints, tested in hierarchical order, were change from baseline in mean monthly headache days across the 12-week treatment period, change from baseline in mean monthly acute medication use days across the 12 week treatment period, ≥50% reduction in 3-month average of monthly migraine days, change from baseline in MSQ v 2.1 Role Function-Restrictive domain score at week 12, change from baseline in mean monthly Performance of Daily Activities domain score of the AIM-D across the 12-week treatment period, and change from baseline in mean monthly Physical Impairment domain score of the AIM-D across the 12-week treatment period. An exploratory analysis of the time course of efficacy for atogepant by 4-week intervals, based on the least square mean change from baseline for the number of monthly migraine days over the 12-week treatment period was also conducted.
A secondary endpoint measured the change from baseline in MSQ v2.1 Role Function Restrictive Domain Score at Week 12. The Migraine-Specific Quality of Life Questionnaire Version 2.1 is one of the most frequently utilized disease-specific tools assessing the impact of migraine on HRQL. The MSQ measures the impact of migraine on the patient's HRQL over the past 4 weeks across three dimensions: Role Function-Restrictive (RR), Role Function-Preventive (RP), and Emotional Function (EF).

C[C@@H]1[C@H](c2c(F)ccc(F)c2F)C[C@H](NC(=O)c2cnc3c(c2)C[C@@]2(C3)C(=O)Nc3ncccc32)C(=O)N1CC(F)(F)F [atogepant]
Change from Baseline in AIM-D Monthly PDA Domain Score, LS Mean Δ from baseline ([1]; Weeks 1-4, MMRM): −7.61 | Change from Baseline in AIM-D Monthly PI Domain Score, LS Mean Δ from baseline ([1]; Weeks 1-4, MMRM): −5.56 | Change from Baseline in AIM-D Monthly PDA Domain Score, LS Mean Δ from baseline ([1]; Weeks 5-8): −8.16 | Change from Baseline in AIM-D Monthly PI Domain Score, LS Mean Δ from baseline ([1]; Weeks 5-8): −5.82 | Change from Baseline in AIM-D Monthly PDA Domain Score, LS Mean Δ from baseline ([1]; Weeks 9-12): −8.53 | Change from Baseline in AIM-D Monthly PI Domain Score, LS Mean Δ from baseline ([1]; Weeks 9-12): −6.13 | Change from Baseline in AIM-D Monthly PDA Domain Score, LS Mean Δ from baseline ([1]; Weeks 13-16): −8.66 | Change from Baseline in AIM-D Monthly PI Domain Score, LS Mean Δ from baseline ([1]; Weeks 13-16): −6.22 | Change from Baseline in AIM-D Monthly PDA Domain Score, LS Mean Δ from baseline ([1]; Weeks 17-20): −9.02 | Change from Baseline in AIM-D Monthly PI Domain Score, LS Mean Δ from baseline ([1]; Weeks 17-20): −6.38 | Change from Baseline in AIM-D Monthly PDA Domain Score, LS Mean Δ from baseline ([1]; Weeks 21-24): −9.11 | Change from Baseline in AIM-D Monthly PI Domain Score, LS Mean Δ from baseline ([1]; Weeks 21-24): −6.43 | Change from Baseline in AIM-D Monthly PDA Domain Score, LS Mean Δ from baseline ([1]; Weeks 25-28): −9.16 | Change from Baseline in AIM-D Monthly PI Domain Score, LS Mean Δ from baseline ([1]; Weeks 25-28): −6.40 | Change from Baseline in AIM-D Monthly PDA Domain Score, LS Mean Δ from baseline ([1]; Weeks 29-32): −9.22 | Change from Baseline in AIM-D Monthly PI Domain Score, LS Mean Δ from baseline ([1]; Weeks 29-32): −6.51 | Change from Baseline in AIM-D Monthly PDA Domain Score, LS Mean Δ from baseline ([1]; Weeks 33-36): −9.61 | Change from Baseline in AIM-D Monthly PI Domain Score, LS Mean Δ from baseline ([1]; Weeks 33-36): −6.94 | Change from Baseline in AIM-D Monthly PDA Domain Score, LS Mean Δ from baseline ([1]; Weeks 37-40): −9.61 | Change from Baseline in AIM-D Monthly PI Domain Score, LS Mean Δ from baseline ([1]; Weeks 37-40): −6.93 | Change from Baseline in AIM-D Monthly PDA Domain Score, LS Mean Δ from baseline ([1]; Weeks 41-44): −9.77 | Change from Baseline in AIM-D Monthly PI Domain Score, LS Mean Δ from baseline ([1]; Weeks 41-44): −7.01 | Change from Baseline in AIM-D Monthly PDA Domain Score, LS Mean Δ from baseline ([1]; Weeks 45-48): −9.79 | Change from Baseline in AIM-D Monthly PI Domain Score, LS Mean Δ from baseline ([1]; Weeks 45-48): −7.02 | Change from Baseline in AIM-D Monthly PDA Domain Score, LS Mean Δ from baseline ([1]; Weeks 49-52, MMRM): −10.17 | Change from Baseline in AIM-D Monthly PI Domain Score, LS Mean Δ from baseline ([1]; Weeks 49-52, MMRM): −7.20 | MSQ v2.1 RFR domain score, LSMD vs. placebo (95% CI) ([2]; 10 mg QD (symbol *), week 4, FIG. 11): 8.6 | MSQ v2.1 RFR domain score, LSMD vs. placebo (95% CI) ([2]; 10 mg QD (symbol *), week 8, FIG. 11): 11.3 | MSQ v2.1 RFR domain score, LSMD vs. placebo (95% CI) ([2]; 10 mg QD, Week 12): 9.9 | MSQ v2.1 Role Function Restrictive domain score, Week 12, mean (SD) ([2]; 10 mg QD): 75.6 | MSQ v2.1 RFR domain score, LSMD vs. placebo (95% CI) ([2]; 10 mg QD, week 12, listed as Atogepant): 9.90 | MSQ v2.1 Role Function Restrictive domain score, MMRM LS mean change (SE) ([2]; 10 mg QD): 30.35 | MSQ v2.1 Role Function Restrictive domain score, change from baseline, mean (SD) ([2]; 10 mg QD): 30.8 | MSQ v2.1 EF domain, improvement vs placebo ([2]; 10 mg): 8.3 | MSQ v2.1 RFP domain, improvement vs placebo ([2]; 10 mg): 5.8 | MSQ v2.1 RFR domain score, LSMD vs. placebo (95% CI) ([2]; 30 mg QD (symbol †), week 4, FIG. 11): 11.2 | MSQ v2.1 RFR domain score, LSMD vs. placebo (95% CI) ([2]; 30 mg QD (symbol †), week 8, FIG. 11): 9.9 | MSQ v2.1 RFR domain score, LSMD vs. placebo (95% CI) ([2]; 30 mg QD, Week 12): 10.1 | MSQ v2.1 Role Function Restrictive domain score, Week 12, mean (SD) ([2]; 30 mg QD): 75.4 | MSQ v2.1 RFR domain score, LSMD vs. placebo (95% CI) ([2]; 30 mg QD, week 12, listed as Atogepant): 10.08 | MSQ v2.1 Role Function Restrictive domain score, MMRM LS mean change (SE) ([2]; 30 mg QD): 30.53 | MSQ v2.1 Role Function Restrictive domain score, change from baseline, mean (SD) ([2]; 30 mg QD): 31.1 | MSQ v2.1 EF domain, improvement vs placebo ([2]; 30 mg): 9.7 | MSQ v2.1 RFP domain, improvement vs placebo ([2]; 30 mg): 6.9 | MSQ v2.1 RFR domain score, LSMD vs. placebo (95% CI) ([2]; 60 mg QD (symbol ‡), week 4, FIG. 11): 12.3 | MSQ v2.1 RFR domain score, LSMD vs. placebo (95% CI) ([2]; 60 mg QD (symbol ‡), week 8, FIG. 11): 10.8 | MSQ v2.1 RFR domain score, LSMD vs. placebo (95% CI) ([2]; 60 mg QD, Week 12): 10.8 | MSQ v2.1 Role Function Restrictive domain score, Week 12, mean (SD) ([2]; 60 mg QD): 78.0 | MSQ v2.1 RFR domain score, LSMD vs. placebo (95% CI) ([2]; 60 mg QD, week 12, listed as Atogepant): 10.80 | MSQ v2.1 Role Function Restrictive domain score, MMRM LS mean change (SE) ([2]; 60 mg QD): 31.25 | MSQ v2.1 Role Function Restrictive domain score, change from baseline, mean (SD) ([2]; 60 mg QD): 30.5 | MSQ v2.1 EF domain, improvement vs placebo ([2]; 60 mg): 10.5 | MSQ v2.1 RFP domain, improvement vs placebo ([2]; 60 mg): 7.1
